# ChEMBL document CHEMBL4396891, “Recent update on anti-dengue drug discovery” (Eur J Med Chem, 2019)
# Assays:
# [1] = tested on: dengue virus type 3; test: Antiviral activity against DENV3 infected in African green monkey Vero cells assessed as virus yield reduction after 48 hrs by plaque assay; assay type: functional, organism-based
# [2] = tested on: dengue virus type 2; test: Antiviral activity against DENV2 infected in African green monkey Vero cells assessed as virus yield reduction after 48 hrs by plaque assay; assay type: functional, organism-based
# [3] = tested on: dengue virus type 1; test: Antiviral activity against DENV1 infected in African green monkey Vero cells assessed as virus yield reduction after 48 hrs by plaque assay; assay type: functional, organism-based
# [4] = tested on: dengue virus type 4; test: Antiviral activity against DENV4 infected in African green monkey Vero cells assessed as virus yield reduction after 48 hrs by plaque assay; assay type: functional, organism-based
# [5] = tested on: dengue virus type 2; test: Antiviral activity against DENV2 16681 infected in human Huh7 cells by luciferase reporter gene assay; assay type: functional, organism-based; conditions: Dengue virus, 16681, Huh-7
# [6] = tested on: dengue virus type 2; test: Antiviral activity against DENV2 infected in human Huh-7 cells; assay type: functional, organism-based
# [7] = tested on: dengue virus type 1; test: Antiviral activity against DENV1 infected in human Huh7 cells assessed as reduction in viral yield after 48 hrs by MTT assay; assay type: functional, organism-based; conditions: Huh-7, 48 h, pooled result: one value given for 4 cell lines, strains, targets or settings
# [8] = tested on: dengue virus type 2; test: Antiviral activity against DENV2 16681 infected in human Huh7 cells after 3 days by RT-qPCR analysis; assay type: functional, organism-based; conditions: Dengue virus, 16681, Huh-7, 72 h
# [9] = target: T1, Genome polyprotein (dengue virus type 2, UniProt P29990); test: Inhibition of His-tagged DENV2 NS2B-NS3 serine protease expressed in baculovirus infected sf9 cells
# [10] = target: T1, Genome polyprotein; test: Inhibition of DENV2 NS2B-NS3 serine protease expressed in human Huh7 cells after 3 days by Phospha-Light SEAP reporter gene Assay; assay type: cell-based
# [11] = tested on: dengue virus type 2; test: Antiviral activity against DENV2 infected in human Huh-7 cells assessed as reduction in viral infection; assay type: functional, organism-based
# [12] = target: T1, Genome polyprotein; test: Inhibition of DENV2 NS2B-NS3 serine protease using Boc-GRR-AMC as substrate after 30 mins
# [13] = target: T1, Genome polyprotein; test: Inhibition of His-tagged DENV2 NS2B-NS3 serine protease
# [14] = tested on: dengue virus type 2; test: Antiviral activity against DENV2 infected in African green monkey Vero cells assessed as reduction in virus titer after 72 hrs by naphthol blue-black dye based assay; assay type: functional, organism-based
# [15] = tested on: dengue virus type 4; test: Antiviral activity against DENV4 infected in African green monkey Vero cells after 30 mins by immunofluorescence assay; assay type: functional, organism-based; conditions: 0.5 h
# [16] = tested on: dengue virus type 2; test: Antiviral activity against DENV2 infected in African green monkey Vero cells after 30 mins by immunofluorescence assay; assay type: functional, organism-based; conditions: 0.5 h
# [17] = tested on: dengue virus type 1; test: Antiviral activity against DENV1 infected in African green monkey Vero cells after 30 mins by immunofluorescence assay; assay type: functional, organism-based; conditions: 0.5 h
# [18] = tested on: dengue virus type 3; test: Antiviral activity against DENV3 infected in African green monkey Vero cells after 30 mins by immunofluorescence assay; assay type: functional, organism-based; conditions: 0.5 h
# [19] = tested on: dengue virus type 3; test: Antiviral activity against DENV3 infected in African green monkey Vero cells assessed as virus yield reduction after 48 hrs by measuring plaque forming units titration; assay type: functional, organism-based
# [20] = tested on: dengue virus type 4; test: Antiviral activity against DENV4 infected in African green monkey Vero cells assessed as virus yield reduction after 48 hrs by measuring plaque forming units titration; assay type: functional, organism-based
# [21] = tested on: dengue virus type 1; test: Antiviral activity against DENV1 infected in African green monkey Vero cells assessed as virus yield reduction after 48 hrs by measuring plaque forming units titration; assay type: functional, organism-based
# [22] = tested on: dengue virus type 2; test: Antiviral activity against DENV2 infected in African green monkey Vero cells assessed as virus yield reduction after 48 hrs by measuring plaque forming units titration; assay type: functional, organism-based
# [23] = tested on: A549; test: Cytotoxicity against human A549 cells assessed as cell survival at 200 uM after 24 hrs by MTT assay relative to control; assay type: functional; conditions: A549, 24 h, read-out: Activity
# [24] = tested on: dengue virus type 1; test: Antiviral activity against DENV1 infected in BHK cells assessed as reduction in viral replication; assay type: functional, organism-based
# [25] = tested on: dengue virus type 3; test: Antiviral activity against DENV3 infected in BHK cells assessed as reduction in viral replication; assay type: functional, organism-based
# [26] = target: Nonstructural protein 5 (Dengue virus, UniProt V5TFZ2); test: Inhibition of recombinant N-terminal His6-tagged DENV2 NGC NS5 RNA dependent RNA polymerase; parameters: species or system dengue virus type 2
# Chain of Nonstructural protein 5 (V5TFZ2 whole entry): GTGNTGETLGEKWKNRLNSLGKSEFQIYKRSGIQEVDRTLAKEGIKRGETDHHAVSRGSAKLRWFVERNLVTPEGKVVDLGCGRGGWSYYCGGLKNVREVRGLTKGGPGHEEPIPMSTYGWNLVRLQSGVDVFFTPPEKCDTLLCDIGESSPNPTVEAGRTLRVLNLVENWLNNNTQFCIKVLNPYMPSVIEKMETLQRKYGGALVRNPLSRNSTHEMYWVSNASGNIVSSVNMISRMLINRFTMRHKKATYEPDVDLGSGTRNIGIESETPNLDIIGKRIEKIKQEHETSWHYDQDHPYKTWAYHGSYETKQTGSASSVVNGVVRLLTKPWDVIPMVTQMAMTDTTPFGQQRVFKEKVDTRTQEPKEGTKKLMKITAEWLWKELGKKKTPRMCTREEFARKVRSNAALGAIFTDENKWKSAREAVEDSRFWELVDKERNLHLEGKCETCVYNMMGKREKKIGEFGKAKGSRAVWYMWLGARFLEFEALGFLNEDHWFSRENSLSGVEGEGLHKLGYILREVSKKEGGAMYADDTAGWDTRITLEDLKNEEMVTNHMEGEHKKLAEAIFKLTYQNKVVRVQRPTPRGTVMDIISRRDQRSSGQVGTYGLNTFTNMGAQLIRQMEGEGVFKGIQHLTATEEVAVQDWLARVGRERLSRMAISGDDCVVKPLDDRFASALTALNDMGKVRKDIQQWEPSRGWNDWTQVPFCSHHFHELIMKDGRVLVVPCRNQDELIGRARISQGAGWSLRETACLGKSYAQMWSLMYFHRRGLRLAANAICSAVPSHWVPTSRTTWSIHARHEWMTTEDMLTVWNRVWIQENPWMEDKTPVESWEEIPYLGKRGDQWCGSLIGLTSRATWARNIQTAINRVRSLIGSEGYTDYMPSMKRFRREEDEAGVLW
# [27] = tested on: dengue virus type 2; test: Antiviral activity against DENV2 infected in BHK cells assessed as reduction in viral replication; assay type: functional, organism-based
# [28] = tested on: dengue virus type 4; test: Antiviral activity against DENV4 infected in BHK cells assessed as reduction in viral replication; assay type: functional, organism-based
# [29] = target: T1, Genome polyprotein; test: Inhibition of Dengue virus NS2B-NS3 serine protease expressed in mouse RAW 264.7 cells; assay type: cell-based
# [30] = tested on: dengue virus type 3; test: Antiviral activity against DENV3 infected in mouse RAW 264.7 cells by MTT assay; assay type: functional, organism-based; conditions: RAW264.7
# [31] = tested on: dengue virus type 4; test: Antiviral activity against DENV4 infected in mouse RAW 264.7 cells by MTT assay; assay type: functional, organism-based; conditions: RAW264.7
# [32] = tested on: dengue virus type 1; test: Antiviral activity against DENV1 infected in mouse RAW 264.7 cells by MTT assay; assay type: functional, organism-based; conditions: RAW264.7
# [33] = tested on: dengue virus type 2; test: Antiviral activity against DENV2 infected in mouse RAW 264.7 cells by MTT assay; assay type: functional, organism-based; conditions: RAW264.7
compound,measurement,setting,value
COc1ccc2c3ccnc(C)c3n(C)c2c1,EC50,[1],3.2 to 49.5 µM
same,EC50,[2],3.2 to 49.5 µM
same,EC50,[3],3.2 to 49.5 µM
same,EC50,[4],3.2 to 49.5 µM
C/C(=C\[C@H](C)C(=O)C[C@H](O)CC1CC(=O)NC(=O)C1)[C@@H]1OC(=O)/C=C/CC/C=C/C=C\[C@@H]1C [LACTIMIDOMYCIN],EC50,[5],0.4 µM
same,EC50,[6],0.4 µM
O=C1[C@H](CC[C@H](O)c2ccc(F)cc2)[C@@H](c2ccc(O)cc2)N1c1ccc(F)cc1 [EZETIMIBE],IC50,[7],13.1 µM
COC(=O)c1[nH]c2ccc(Cl)cc2c1C(=O)c1cc(OC)c(O)c(OC)c1,EC50,[8],4.6 µM
same,IC50,[9],6.7 µM
same,IC50,[10],6.7 µM
same,EC50,[11],4.6 µM
same,IC50,[12],4.7 µM
same,IC50,[13],4.7 µM
C[C@H]1c2cccc(O)c2C(=O)C2=C(O)[C@]3(O)C(=O)C(C(N)=O)=C(O)[C@@H](N(C)C)[C@@H]3[C@@H](O)[C@@H]21 [DOXYCYCLINE],IC50,[14],50 µM
C/C(=N\NC(N)=S)[C@H](Cc1c[nH]c2ccccc12)NC(=O)c1ccccc1,EC50,[15],30 to 50 µM
same,EC50,[16],30 to 50 µM
same,EC50,[17],30 to 50 µM
same,EC50,[18],30 to 50 µM
C=CCn1c2ccccc2c(=O)c2cc(Cl)ccc21,EC50,[19],12.5 to 27.1 µM
same,EC50,[20],12.5 to 27.1 µM
same,EC50,[21],12.5 to 27.1 µM
same,EC50,[22],12.5 to 27.1 µM
CC1(C)[C@@H](OC(=O)CCC(=O)O)CC[C@]2(C)[C@H]3C(=O)C=C4[C@@H]5C[C@@](C)(C(=O)O)CC[C@]5(C)CC[C@@]4(C)[C@]3(C)CC[C@@H]12 [CARBENOXOLONE],viability at 200 µM,[23],80%
O=C(NO)c1ncc(CS(=O)(=O)c2ccccc2)c(CO)c1O,EC50,[24],2.2 to 2.8 µM
same,EC50,[25],2.2 to 2.8 µM
same,IC50,[26],5 to 6.7 µM
same,EC50,[27],2.2 to 2.8 µM
same,IC50,[28],2.2 to 2.8 µM
CC(=O)O[C@H]1CC(C)(C)C(=C=C/C(C)=C/C=C/C=C/C=C(C)/C=C2C=C(/C=C/[C@@]34O[C@]3(C)C[C@@H](O)CC4(C)C)C(=O)O/2)[C@](C)(O)C1,EC50,[29],8.5 µM
same,EC50,[30],5.84 to 7.62 µM
same,EC50,[31],5.84 to 7.62 µM
same,EC50,[32],5.84 to 7.62 µM
same,EC50,[33],5.84 to 7.62 µM
